Calls of active or inactive are those of the source. No cut-off for these calls is given here.
How the values were obtained:
[1] = system: PC-3; assay: Cytotoxicity against human PC3 cells assessed as growth inhibition at 50 uM after 48 hrs by SRB method; type: functional; settings: PC-3, 48 h, read-out: GI
[2] = system: MCF7; assay: Cytotoxicity against human MCF7 cells assessed as growth inhibition at 50 uM after 48 hrs by SRB method; type: functional; settings: for inhibition of growth at 50 µM: MCF7, 48 h, read-out: GI
[3] = (§1) Cytotoxicity against human HCT15 cells assessed as growth inhibition at 50 uM after 48 hrs by SRB method; type: functional; settings: HCT-15, 48 h, read-out: GI
[4] = Cytotoxicity against mouse J774 cells assessed as growth inhibition at 50 uM after 48 hrs by SRB method; type: cell-based; settings: read-out: GI
[5] = system: HCT-15; assay: as §1; type: functional

| SMILES | inhibition of growth at 50 µM [1] [%] | inhibition of growth at 50 µM [2] [%] | inhibition of growth at 50 µM [3] [%] | inhibition at 48 h, 50 µM [4] [%] | growth inhibition (GI) [2] | growth inhibition (GI) [5] |
| --- | --- | --- | --- | --- | --- | --- |
| CC(=O)C1=CC[C@H]2[C@@H]3CC(=O)C4=C[C@@H](OC(=O)Nc5ccc(I)cc5)CC[C@]4(C)[C@H]3CC[C@]12C | 42.8 | 33.1 | 43.2 | 70.7 | – | – |
| CC(=O)C1=CC[C@H]2[C@@H]3CC(=O)C4=C[C@@H](OC(=O)c5ccc(Cl)cc5)CC[C@]4(C)[C@H]3CC[C@]12C | 87.3 | 100 | 88.2 | 38.8 | – | – |
| CC(=O)C1=CC[C@H]2[C@@H]3CC(=O)C4=C[C@@H](O)CC[C@]4(C)[C@H]3CC[C@]12C | 70.6 | 63.5 | 67.7 | 98.9 | – | – |
| CC(=O)[C@@]1(OC(=O)c2ccc(I)cc2)CC[C@H]2[C@@H]3C=CC4=CC(=O)CC[C@]4(C)[C@H]3CC[C@@]21C | 30.8 | 22.6 | 27.5 | 74.3 | – | – |
| CC(=O)C1=CC[C@H]2[C@@H]3CC(=O)C4=C[C@@H](OC(=O)Nc5ccccc5)CC[C@]4(C)[C@H]3CC[C@]12C | 4.5 | 34.7 | 41.4 | 73.8 | – | – |
| CC(=O)C1=CC[C@H]2[C@@H]3CC(=O)C4=C[C@@H](OC(=O)Nc5ccc(F)cc5)CC[C@]4(C)[C@H]3CC[C@]12C | 33 | 34.6 | 60.1 | 78.3 | – | – |
| CC(=O)[C@@]1(OC(=O)c2ccc(F)cc2)CC[C@H]2[C@@H]3C=CC4=CC(=O)CC[C@]4(C)[C@H]3CC[C@@]21C | 30.9 | 29.2 | 35.6 | 100 | – | – |
| CC(=O)[C@@]1(OC(=O)c2ccc(Cl)cc2)CC[C@H]2[C@@H]3C=CC4=CC(=O)CC[C@]4(C)[C@H]3CC[C@@]21C | 46.1 | 39.8 | 39.3 | 73.6 | – | – |
| CC(=O)[C@@]1(OC(=O)Nc2ccc(I)cc2)CC[C@H]2[C@@H]3C=CC4=CC(=O)CC[C@]4(C)[C@H]3CC[C@@]21C | 17.8 | – | – | 21.7 | inactive | inactive |
| CC(=O)[C@@]1(OC(=O)Nc2ccc(F)cc2)CC[C@H]2[C@@H]3C=CC4=CC(=O)CC[C@]4(C)[C@H]3CC[C@@]21C | 33.4 | 20 | – | 43.4 | – | inactive |
| CC(=O)[C@@]1(OC(=O)c2ccc(Br)cc2)CC[C@H]2[C@@H]3C=CC4=CC(=O)CC[C@]4(C)[C@H]3CC[C@@]21C | 84.7 | 44.4 | 53.9 | 57 | – | – |
| CC(=O)C1=CC[C@H]2[C@@H]3CC(=O)C4=C[C@@H](OC(=O)Nc5ccc(Br)cc5)CC[C@]4(C)[C@H]3CC[C@]12C | 26.9 | 14 | 30 | 80.5 | – | – |
| CC(=O)[C@@]1(OC(=O)Nc2ccccc2)CC[C@H]2[C@@H]3C=CC4=CC(=O)CC[C@]4(C)[C@H]3CC[C@@]21C | 96.6 | 51.3 | 45.3 | 48.2 | – | – |
| CC(=O)[C@@]1(OC(=O)c2ccccc2)CC[C@H]2[C@@H]3C=CC4=CC(=O)CC[C@]4(C)[C@H]3CC[C@@]21C | 42.5 | 26.8 | 50.8 | 100 | – | – |
| CC(=O)C1=CC[C@H]2[C@@H]3CC(=O)C4=C[C@@H](OC(=O)c5ccccc5)CC[C@]4(C)[C@H]3CC[C@]12C | 2.9 | 32.7 | 48.7 | 89.3 | – | – |
| CC(=O)C1=CC[C@H]2[C@@H]3CC(=O)C4=C[C@@H](OC(=O)c5ccc(F)cc5)CC[C@]4(C)[C@H]3CC[C@]12C | 8.3 | 20.8 | 22.8 | 50 | – | – |
| CC(=O)C1=CC[C@H]2[C@@H]3CC(=O)C4=C[C@@H](OC(=O)c5ccc(Br)cc5)CC[C@]4(C)[C@H]3CC[C@]12C | 51.9 | 86.2 | 55.9 | 60.9 | – | – |
| CC(=O)[C@@]1(OC(=O)Nc2ccc(Cl)cc2)CC[C@H]2[C@@H]3C=CC4=CC(=O)CC[C@]4(C)[C@H]3CC[C@@]21C | 15.8 | 11.2 | – | 36.9 | – | inactive |
| CC(=O)C1=CC[C@H]2[C@@H]3CC(=O)C4=C[C@@H](OC(=O)Nc5ccc(Cl)cc5)CC[C@]4(C)[C@H]3CC[C@]12C | 63.4 | 13.7 | 65.3 | 92.4 | – | – |
| CC(=O)[C@@]1(O)CC[C@H]2[C@@H]3C=CC4=CC(=O)CC[C@]4(C)[C@H]3CC[C@@]21C | 39.6 | 27.8 | 25 | 58.5 | – | – |
| CC(=O)N1CCN(c2ccc(OCC3COC(Cn4ccnc4)(c4ccc(Cl)cc4Cl)O3)cc2)CC1 (configuration not stated) [KETOCONAZOLE] | 88.5 | 95.2 | 90.6 | 54 | – | – |
| CC(=O)C1=CC[C@H]2[C@@H]3CC(=O)C4=C[C@@H](OC(=O)c5ccc(I)cc5)CC[C@]4(C)[C@H]3CC[C@]12C | 64.1 | 100 | 67.3 | 61.1 | – | – |
| CC(=O)[C@@]1(OC(=O)Nc2ccc(Br)cc2)CC[C@H]2[C@@H]3C=CC4=CC(=O)CC[C@]4(C)[C@H]3CC[C@@]21C | 26.4 | 13.1 | – | 32 | – | inactive |

From ChEMBL document CHEMBL3286271, “Synthesis and cytotoxic effect on cancer cell lines and macrophages of novel progesterone derivatives having an ester or a carbamate function at C-3 and C-17” (Eur J Med Chem, 2014)
